Source: US20120214760A1, “TREATMENT OF URINARY TRACT INFECTIONS WITH ANTIBACTERIAL AMINOGLYCOSIDE COMPOUNDS” (Achaogen, Inc., priority 2009, published 2012)
Converted amounts (≈) assume the structure as drawn. Where two headings read alike, the source gives them in different places.

How the values were obtained:
[1] = system: E. coli ATCC 25922, Susceptible; assay: Murine neutropenic thigh model; type: in vivo
Protocol: (§1) The in vivo activity of Example 1 in the mouse neutropenic thigh model (Andes and Craig. Antimicrob Agents Chemother. 2002, 46:1665-1670) was determined against seven bacterial strains including susceptible Escherichia coli and Klebsiella pneumoniae; multi-drug resistant (MDR) clinical isolates of E. coli and K. pneumoniae that display resistance to multiple antibiotics (including AGs); MRSA; and two K. pneumoniae carbapenemases (KPC)-expressing strains (see Table 5). For this efficacy model, groups of six CD-1 mice were rendered neutropenic by two intraperitoneal injections of cyclophosphamide. The first injection was 150 mg/kg three days prior to infection (day −4), and the second injection was 100 mg/kg one day prior to infection (day −1). On study day 0, animals were inoculated intramuscularly (0.1 ml) with a known number of colony forming units (CFU) of the specified bacterial strain (ATCC 25922, AECO 1003, ATCC 43816, AKPN 1073, AKPN 1109, ATCC 33591 or ASMA 1030), tailored to the virulence of each strain in the model to maximize bacterial load while avoiding mortality in the untreated control arms. Antibiotics were administered via subcutaneous injection at 2 and 14 hours after bacterial challenge. At 26 hours, infected thigh tissue was harvested, homogenized, and plated to count CFU. Untreated control animals were harvested at 2 hours post-infection to assess the initial bacterial load and at 26 hours post-infection to measure growth in the absence of antibiotic treatment.

[2] = system: K. pneumoniae ATCC 43816, Susceptible; assay: Murine neutropenic thigh model; type: in vivo
Protocol: as §1

[3] = system: S. marcescens ASMA 1030, KPC; assay: Murine neutropenic thigh model; type: in vivo
Protocol: as §1

[4] = system: E. coli ATCC 25922 (AECO001); assay: MIC, CLSI broth microdilution; type: cell-based; conditions: for MIC: Escherichia coli
How it was run: (§2)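 CLSI M7-A7 broth microdilution in Mueller Hinton Broth using two-fold compound serial dilutions. Inoculum was prepared from the previous day's agar colonies at a final 5×10^5 CFU/mL. Plates were incubated at 35° C for 20 hours in ambient air.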

[5] = system: P. aeruginosa ATCC 27853 (APAE001); assay: MIC, CLSI broth microdilution; type: cell-based; conditions: Pseudomonas aeruginosa, ATCC27853; Table 2; read-out: MIC P. aeruginosa
How it was run: as §2

[6] = system: S. aureus ATCC 33591, MRSA; assay: Murine neutropenic thigh model; type: in vivo
Protocol: FIG. 4 is a line graph showing dose-responses of Example 1, arbekacin, gentamicin, vancomycin, and daptomycin in a murine neutropenic thigh model against an MRSA (ATCC 33591). Activity is presented as the log10 difference in CFU/thigh after 24 hours of antibiotic treatment compared to CFU/thigh just prior to antibiotic treatment (2 hours post-infection). Total dose per 24 hours is shown; dosing was q12 hours. 6 mice per group, Inoculum=1.2×10^3 CFU.
as §1

[7] = system: K. pneumoniae AKPN 1109, KPC; assay: MIC of thigh model strain; type: cell-based; conditions: Klebsiella pneumoniae; Table 5; K. pneumoniae KPC AKPN 1109
Protocol: (§3) Minimum inhibitory concentrations (MIC) were determined by reference Clinical and Laboratory Standards Institute (CLSI) broth microdilution methods per M7-A7 [2006]. Quality control ranges utilizing E. coli ATCC 25922, P. aeruginosa ATCC 27853 and S. aureus ATCC 29213, and interpretive criteria for comparator agents were as published in CLSI M100-S17 [2007]. Briefly, serial two-fold dilutions of the test compounds were prepared at 2× concentration in Mueller Hinton Broth. The compound dilutions were mixed in 96-well assay plates in a 1:1 ratio with bacterial inoculum. The inoculum was prepared by suspension of a colony from an agar plate that was prepared the previous day. Bacteria were suspended in sterile saline and added to each assay plate to obtain a final concentration of 5×10^5 CFU/mL. The plates were incubated at 35° C. for 20 hours in ambient air.

E. coli AECO 1003, MDR [8] = assay: MIC of thigh model strain; type: cell-based; conditions: Escherichia coli; Table 5; E. coli MDR AECO 1003; read-out: MIC
Protocol: as §3

[9] = system: S. aureus ATCC 33591, MRSA; assay: MIC of thigh model strain; type: cell-based; conditions: Staphylococcus aureus; Table 5; S. aureus MRSA ATCC 33591; read-out: MIC
Protocol: as §3

[10] = system: K. pneumoniae ATCC 43816, Susceptible; assay: MIC of thigh model strain; type: cell-based; conditions: Klebsiella pneumoniae, ATCC43816; Table 5; K. pneumoniae Susceptible ATCC 43816
Protocol: as §3

[11] = system: K. pneumoniae AKPN 1073, MDR; assay: MIC of thigh model strain; type: cell-based; conditions: Klebsiella pneumoniae; Table 5; K. pneumoniae MDR AKPN 1073
Protocol: as §3

[12] = system: S. marcescens ASMA 1030, KPC; assay: MIC of thigh model strain; type: cell-based; conditions: Serratia marcescens; Table 5; S. marcescens KPC ASMA 1030
Protocol: as §3

[13] = system: K. pneumoniae AKPN 1073, MDR; assay: Murine neutropenic thigh model; type: in vivo
Protocol: FIG. 2 is a line graph showing dose-responses of Example 1, gentamicin, and imipenem (positive control) in a murine neutropenic thigh model against an AG-resistant clinical isolate of K. pneumoniae (AKPN 1073). Activity is presented as the log10 difference in CFU/thigh after 24 hours of antibiotic treatment compared to CFU/thigh just prior to antibiotic treatment (2 hours post-infection). Total dose per 24 hours is shown; dosing was q12 hours. 6 mice per group. Inoculum=1.3×10^4 CFU.
as §1

E. coli AECO 1003, MDR [14] = assay: Murine neutropenic thigh model; type: in vivo
Protocol: Activity is presented as the log10 difference in CFU/thigh after 24 hours of antibiotic treatment compared to CFU/thigh just prior to antibiotic treatment (2 hours post-infection). Total dose per 24 hours is shown; dosing was q12 hours. 6 mice per group. Inoculum=1.5×10^3 CFU.
as §1

## CN[C@@H]1[C@@H](O)[C@@H](O[C@@H]2[C@@H](O)[C@H](O[C@H]3OC(CNCCO)=CC[C@H]3N)[C@@H](N)C[C@H]2NC(=O)[C@@H](O)CCN)OC[C@]1(C)O [Example 1, 6′-(2-Hydroxy-ethyl)-1-(4-amino-2(S)-hydroxy-butyryl)-sisomicin]
[1]
  ED50/MIC: 8.4
[1]; Escherichia coli, ATCC25922, sc, neutropenic CD-1 mice, subcutaneous at 2 and 14 hours
  ED50: 8.4 mg/kg
[2]
  ED50/MIC: 7.4
[2]; Klebsiella pneumoniae, ATCC43816, sc, neutropenic CD-1 mice, subcutaneous at 2 and 14 hours
  ED50: 3.7 mg/kg
[3]
  ED50/MIC: 16.5
[3]; Serratia marcescens, sc, neutropenic CD-1 mice, subcutaneous at 2 and 14 hours
  ED50: 16.5 mg/kg
[4]; ATCC25922, Table 2, read-out: MIC E. coli
  MIC: < 1 µg/mL
[4]; ATCC25922, Table 5, E. coli Susceptible ATCC 25922, read-out: MIC
  MIC: 1 µg/mL (≈ 1.69 µM)
[4]; Table 1, AECO001 is ATCC25922, read-out: MIC AECO001
  MIC: < 1 µg/mL
[4]; Table 3, ATCC25922
  MIC AECO001: 0.5 µg/mL (≈ 0.844 µM)
[5]
  MIC: 1 to 16 µg/mL (≈ 1.69 to 27 µM)
[6]; S. aureus ATCC 33591
  ED50/MIC: 4.8-9.7
[6]; Staphylococcus aureus, sc, neutropenic CD-1 mice, subcutaneous at 2 and 14 hours, S. aureus ATCC 33591
  ED50: 38.7 mg/kg
[6]; two highest dosages, challenge 1.2×10^3 CFU ATCC 33591, FIG. 4
  bacterial load after 24 hours of treatment versus initial bacterial load at 2 hours post-inoculation: reduced to below the initial bacterial load
[7]
  MIC: 0.25 to 0.5 µg/mL
E. coli AECO 1003, MDR [8]
  MIC: 1 µg/mL
[9]
  MIC: 4 to 8 µg/mL
[10]
  MIC: 0.5 µg/mL
[11]
  MIC: 0.5 µg/mL
[12]
  MIC: 1 µg/mL
[13]; K. pneumoniae AKPN 1073
  ED50/MIC: 6.6
[13]; Klebsiella pneumoniae, sc, neutropenic CD-1 mice, subcutaneous at 2 and 14 hours, K. pneumoniae AKPN 1073
  ED50: 3.3 mg/kg
[13]; two highest dosages, challenge 1.3×10^4 CFU AKPN 1073, FIG. 2
  bacterial load after 24 hours of treatment versus initial bacterial load at 2 hours post-inoculation: reduced to below the level of the initial bacterial load
E. coli AECO 1003, MDR [14]; E. coli AECO 1003
  ED50/MIC: 14.6
E. coli AECO 1003, MDR [14]; Escherichia coli, sc, neutropenic CD-1 mice, subcutaneous at 2 and 14 hours, E. coli AECO 1003
  ED50: 14.6 mg/kg
E. coli AECO 1003, MDR [14]; highest dosage, challenge 1.5×10^3 CFU AECO 1003, FIG. 1
  bacterial titer after 24 hours of treatment versus initial bacterial load at 2 hours post-inoculation: reduced to below the initial bacterial load
